Laboratory results taken from patent US8192962B2, “Processes for detecting toxic substances” (Daikin Industries, Ltd., priority 2001, dated 2012).

Test system: Metabolism protein genes
Assay: DNA chip mRNA expression in yeast, metabolism protein genes (Table 7)
Assay type: cell-based, Saccharomyces cerevisiae S288C
Description: Yeast (Saccharomyces cerevisiae S288C (α SUC2mal mel gap2 CUP1)) were incubated at 25° C. on YPD medium (yeast extract 1%, polypepton 2%, glucose 2%). One of toxic chemical substances was added to the cells at logarithmic growth phase, and the cells were further incubated for two hours. Cells were cultured without any chemical substance in the same condition, and were used as control. Concentrations of the chemical substances were defined to inhibit the growth of the yeast but not lead to death.
After completion of the incubation, the culture was centrifuged to collect the cells. To the cells, sodium acetate buffer (50 mM sodium acetate, 10 mM EDTA, 1% SDS) was added, and the mixture was shaken at 65° C. for five minutes, followed by returning to room temperature, and obtaining the supernatant, of which the procedures were repeated two times. To the supernatant, ½ amount of a solution of phenol/chloroform was added, and the mixture was centrifuged to give a supernatant, which was added with an equal amount of chloroform, and the mixture was centrifuged to give a supernatant. To the supernatant, an equal amount of isopropanol containing 0.3 M sodium acetate was added, and the mixture was allowed to stand at room temperature for 30 minutes, after which the mixture was centrifuged to give a sediment of the whole RNAs. Seventy % ethanol was added to the sediment, and the mixture was again centrifuged to give a sediment, which was then dried and dissolved in water. mRNA was isolated from the whole RNAs as followings. In view of the fact that a poly A chain is attached to the 3′ terminus of mRNA, a polynucleotide having a poly T structure which was immobilized on the surface of latex beads was used to trap the mRNA, and then the mRNA was washed and eluted with spine column (Oligotex-dT30<Super>mRNA Purification Kit, Takara). Reverse transcription of the mRNA was conducted with a reverse transcriptase (Super Script II Reverse Transcriptase; catalogue No. 18064-014, GibcoBRL) using fluorescence-labeled nucleotides to give cDNAs that were introduced with Cy3-dUTP or Cy5-dUTP during the reverse transcription.
The labeled cDNAs were dissolved in TE buffer (10mM Tris-HCl/1 mM EDTA, pH8.0), and the solution was dropped on the DNA chip containing the whole genes of yeast (DNA Chip Research Inc. Japan) so that the cDNAs were hybridized on the DNA chip at 65° C. for over 12 hours. The fluoresces intensity of the DNA chip was read with a scanner, and the ratio relative to the fluorescence intensity resulting from the absence of chemical substance was estimated as the following, which is shown in Tables 1 to 9: […]

## C[S+](C)[O-] [(15), dimethylsulfoxide]
Yeast gene YAL012W
  The level of expressed mRNA in the presence of chemical substance/The level of expressed mRNA in the absence of chemical substance: 3.1
Yeast gene YAL038W
  The level of expressed mRNA in the presence of chemical substance/The level of expressed mRNA in the absence of chemical substance: 3.1
Yeast gene YAL044C
  The level of expressed mRNA in the presence of chemical substance/The level of expressed mRNA in the absence of chemical substance: 0.7
Yeast gene YAL054C
  The level of expressed mRNA in the presence of chemical substance/The level of expressed mRNA in the absence of chemical substance: 0.9
Yeast gene YAR071W
  The level of expressed mRNA in the presence of chemical substance/The level of expressed mRNA in the absence of chemical substance: 1.1
Yeast gene YBL001C
  The level of expressed mRNA in the presence of chemical substance/The level of expressed mRNA in the absence of chemical substance: 1.0
Yeast gene YBR003W
  level of expressed mRNA in the presence/in the absence of chemical substance: 0.7
Yeast gene YBR011C
  level of expressed mRNA in the presence/in the absence of chemical substance: 2.1
Yeast gene YBR014C
  The level of expressed mRNA in the presence of chemical substance/The level of expressed mRNA in the absence of chemical substance: 1.2
Yeast gene YBR020W
  level of expressed mRNA in the presence/in the absence of chemical substance: 1.3
Yeast gene YBR023C
  The level of expressed mRNA in the presence of chemical substance/The level of expressed mRNA in the absence of chemical substance: 2.8
Yeast gene YBR029C
  The level of expressed mRNA in the presence of chemical substance/The level of expressed mRNA in the absence of chemical substance: 3.5
Yeast gene YBR035C
  The level of expressed mRNA in the presence of chemical substance/The level of expressed mRNA in the absence of chemical substance: 0.7
Yeast gene YBR068C
  The level of expressed mRNA in the presence of chemical substance/The level of expressed mRNA in the absence of chemical substance: 1.6
Yeast gene YBR111C
  The level of expressed mRNA in the presence of chemical substance/The level of expressed mRNA in the absence of chemical substance: 0.7
Yeast gene YBR183W
  The level of expressed mRNA in the presence of chemical substance/The level of expressed mRNA in the absence of chemical substance: 1.1
Yeast gene YBR256C
  The level of expressed mRNA in the presence of chemical substance/The level of expressed mRNA in the absence of chemical substance: 1.6
Yeast gene YCL009C
  The level of expressed mRNA in the presence of chemical substance/The level of expressed mRNA in the absence of chemical substance: 6.5
Yeast gene YCR010C
  level of expressed mRNA in the presence/in the absence of chemical substance: 1.2
Yeast gene YCR034W
  level of expressed mRNA in the presence/in the absence of chemical substance: 0.9
Yeast gene YCR037C
  The level of expressed mRNA in the presence of chemical substance/The level of expressed mRNA in the absence of chemical substance: 1.0
Yeast gene YCR048W
  The level of expressed mRNA in the presence of chemical substance/The level of expressed mRNA in the absence of chemical substance: 3.1
Yeast gene YCR098C
  The level of expressed mRNA in the presence of chemical substance/The level of expressed mRNA in the absence of chemical substance: 11.0
Yeast gene YDL021W
  The level of expressed mRNA in the presence of chemical substance/The level of expressed mRNA in the absence of chemical substance: 0.7
Yeast gene YDL022W
  The level of expressed mRNA in the presence of chemical substance/The level of expressed mRNA in the absence of chemical substance: 0.9
Yeast gene YDR050C
  level of expressed mRNA in the presence/in the absence of chemical substance: 1.9
Yeast gene YDR073W
  level of expressed mRNA in the presence/in the absence of chemical substance: 0.8
Yeast gene YDR123C
  level of expressed mRNA in the presence/in the absence of chemical substance: 1.2
Yeast gene YDR178W
  level of expressed mRNA in the presence/in the absence of chemical substance: 0.7
Yeast gene YDR277C
  level of expressed mRNA in the presence/in the absence of chemical substance: 0.4
Yeast gene YDR284C
  level of expressed mRNA in the presence/in the absence of chemical substance: 0.9
Yeast gene YDR345C
  level of expressed mRNA in the presence/in the absence of chemical substance: 0.8
Yeast gene YDR380W
  The level of expressed mRNA in the presence of chemical substance/The level of expressed mRNA in the absence of chemical substance: 2.4
Yeast gene YDR400W
  level of expressed mRNA in the presence/in the absence of chemical substance: 0.8
Yeast gene YDR408C
  level of expressed mRNA in the presence/in the absence of chemical substance: 1.0
Yeast gene YDR410C
  The level of expressed mRNA in the presence of chemical substance/The level of expressed mRNA in the absence of chemical substance: 1.2
Yeast gene YDR483W
  level of expressed mRNA in the presence/in the absence of chemical substance: 1.5
Yeast gene YDR487C
  The level of expressed mRNA in the presence of chemical substance/The level of expressed mRNA in the absence of chemical substance: 1.0
Yeast gene YDR502C
  The level of expressed mRNA in the presence of chemical substance/The level of expressed mRNA in the absence of chemical substance: 8.2
Yeast gene YDR516C
  The level of expressed mRNA in the presence of chemical substance/The level of expressed mRNA in the absence of chemical substance: 0.4
Yeast gene YEL011W
  The level of expressed mRNA in the presence of chemical substance/The level of expressed mRNA in the absence of chemical substance: 0.4
Yeast gene YEL063C
  level of expressed mRNA in the presence/in the absence of chemical substance: 1.3
Yeast gene YER015W
  level of expressed mRNA in the presence/in the absence of chemical substance: 0.8
Yeast gene YER026C
  The level of expressed mRNA in the presence of chemical substance/The level of expressed mRNA in the absence of chemical substance: 4.0
Yeast gene YER053C
  The level of expressed mRNA in the presence of chemical substance/The level of expressed mRNA in the absence of chemical substance: 1.1
